According to US20230190950A1, “COMPOSITIONS AND METHODS FOR THE TREATMENT OF BACTERIAL INFECTIONS” (Cidara Therapeutics, Inc., priority 2017, published 2023):

How the values were obtained:
Conditions in all cases: 40% blood, 90 min
AB 5075 COL^S = assay: MBC in human blood, AB 5075; assay type: cell-based, Acinetobacter baumannii
Protocol: (§1) Overnight stationary-phase cultures were centrifuged at 3,500×g for 10 min at room temperature and resuspended in 1×PBS to an optical density at 600 nm (OD600) of 0.4 (1×10^8 colony forming units [CFU]/mL) in RPMI with L-glutamine and phenol red (Life Technologies). […] MBC was defined as the minimum conjugate concentration required for complete bacterial clearance. An untreated growth control (40% blood, 0 μg/mL conjugate) was included in all assays.
(§2) Overnight stationary-phase cultures were centrifuged at 3,500×g for 10 min at room temperature and resuspended in 1×PBS to an optical density at 600 nm (OD600) of 0.4 (1×10^8 colony forming units [CFU]/ml) in RPMI with L-glutamine and phenol red (Life Technologies). Bacteria were diluted 1:25 in RPMI (4×10^6 CFU/ml) and 10 ul added to wells of a non-binding 96-well plate (Corning 3641) containing 80 ul of 50% hirudin anti-coagulated blood (complement active) in RPMI. […] MBC was defined as the minimum conjugate concentration required for bacterial clearance (Table 8A and Table 8B). An untreated growth control (40% blood, 0 ug/ml conjugate) was included in all assays as a growth comparator.

EC 25922 COL^S = assay: MBC in human blood, EC 25922; assay type: cell-based, Escherichia coli
Protocol: as §1, §2

PA 7874 COL^R = assay: MBC in human blood, PA 7874; assay type: cell-based, Pseudomonas aeruginosa
Protocol: as §1, §2

PA 01 COL^S = assay: MBC in human blood, PA 01; assay type: cell-based, Pseudomonas aeruginosa
Protocol: as §1, §2

hIgG1 Fc: "h-IgG1 Fc (SEQ ID NO: 4)", "MW=54,731 Da"; the unconjugated Fc used as starting protein
>128 µg/mL: MBC in human hirudin-anticoagulated blood, A. baumannii AB5075 (AB 5075 COL^S) | MBC in human hirudin-anticoagulated blood, E. coli ATCC 25922 (EC 25922 COL^S) | MBC in human hirudin-anticoagulated blood, P. aeruginosa PA7874 (PA 7874 COL^R) | MBC in human hirudin-anticoagulated blood, P. aeruginosa PAO1 (PA 01 COL^S)
